Calls of active or inactive are those of the source. No cut-off for these calls is given here.
Key:
[1] = target: Serine/threonine-protein kinase Sgk1 (Homo sapiens) (UniProt O00141); experiment: Inhibition of recombinant human GST-tagged SGK1 catalytic domain (60 to 431 residues) expressed in baculovirus expression system assessed as enzyme residual activity at 0.4 uM using fluorophore-labeled serine/threonine-6 peptide as substrate incubated for 60 mins by Z'-LYTE assay relative to control
[2] = system: MOLT-4; experiment: Induction of apoptosis in human MOLT4 cells assessed as downregulation of caspase3 at 1 to 20 uM incubated for 24 hrs by Western blot analysis; format: functional, cell-based
[3] = target: Protein kinase C theta type (Homo sapiens) (UniProt Q04759); experiment: Inhibition of recombinant full length human His-tagged PRKCQ expressed in baculovirus expression system assessed as enzyme residual activity at 0.4 uM using fluorophore-labeled serine/threonine-7 peptide as substrate incubated for 60 mins by Z'-LYTE assay relative to control
Sequence of Protein kinase C theta type (Homo sapiens) (Q04759 whole entry, looked up): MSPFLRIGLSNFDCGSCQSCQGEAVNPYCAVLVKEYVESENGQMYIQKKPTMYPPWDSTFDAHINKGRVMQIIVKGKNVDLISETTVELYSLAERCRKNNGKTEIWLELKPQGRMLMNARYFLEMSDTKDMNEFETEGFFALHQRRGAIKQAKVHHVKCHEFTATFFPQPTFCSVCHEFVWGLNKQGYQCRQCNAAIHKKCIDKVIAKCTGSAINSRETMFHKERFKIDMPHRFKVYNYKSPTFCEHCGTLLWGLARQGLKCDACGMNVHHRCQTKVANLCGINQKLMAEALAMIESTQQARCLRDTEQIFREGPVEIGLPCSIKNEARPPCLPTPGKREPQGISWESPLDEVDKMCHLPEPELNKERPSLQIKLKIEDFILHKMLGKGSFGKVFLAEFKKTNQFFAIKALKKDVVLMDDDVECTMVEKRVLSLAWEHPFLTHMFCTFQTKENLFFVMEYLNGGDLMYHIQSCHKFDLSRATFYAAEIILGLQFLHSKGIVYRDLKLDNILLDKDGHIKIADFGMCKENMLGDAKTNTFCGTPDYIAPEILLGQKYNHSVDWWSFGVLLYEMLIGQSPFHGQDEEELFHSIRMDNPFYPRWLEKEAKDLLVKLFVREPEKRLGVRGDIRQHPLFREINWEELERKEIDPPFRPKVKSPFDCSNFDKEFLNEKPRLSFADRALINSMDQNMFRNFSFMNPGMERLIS

[4] = target: Interleukin-1 receptor-associated kinase 4 (Homo sapiens) (UniProt Q9NWZ3); experiment: Inhibition of recombinant human His-tagged IRAK4 expressed in baculovirus expression system assessed as enzyme residual activity at 0.4 uM using fluorophore-labeled serine/threonine-7 peptide as substrate incubated for 60 mins by Z'-LYTE assay relative to control
Sequence of Interleukin-1 receptor-associated kinase 4 (Homo sapiens) (Q9NWZ3 whole entry, the tested form may be a part): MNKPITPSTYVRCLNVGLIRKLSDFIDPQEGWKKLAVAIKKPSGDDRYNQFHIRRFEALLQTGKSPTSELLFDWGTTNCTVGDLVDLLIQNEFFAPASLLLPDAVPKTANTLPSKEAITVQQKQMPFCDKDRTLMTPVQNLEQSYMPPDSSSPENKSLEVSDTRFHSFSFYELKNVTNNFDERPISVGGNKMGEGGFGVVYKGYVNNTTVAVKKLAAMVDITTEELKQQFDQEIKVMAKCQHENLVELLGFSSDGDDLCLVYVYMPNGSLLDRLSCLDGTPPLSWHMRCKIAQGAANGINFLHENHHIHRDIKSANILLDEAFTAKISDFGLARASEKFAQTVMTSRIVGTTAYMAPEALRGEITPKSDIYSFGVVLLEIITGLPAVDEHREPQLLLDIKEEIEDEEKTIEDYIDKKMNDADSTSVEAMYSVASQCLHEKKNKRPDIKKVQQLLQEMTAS

[5] = target: Tyrosine-protein kinase BTK (Homo sapiens, UniProt Q06187); experiment: Inhibition of recombinant full length human His-tagged BTK cytoplasmic domain expressed in baculovirus expression system assessed as enzyme residual activity at 0.4 uM using fluorophore-labeled tyrosine-1 peptide as substrate incubated for 60 mins by Z'-LYTE assay relative to control
Sequence of Tyrosine-protein kinase BTK (Q06187 whole entry, the tested form may be a part): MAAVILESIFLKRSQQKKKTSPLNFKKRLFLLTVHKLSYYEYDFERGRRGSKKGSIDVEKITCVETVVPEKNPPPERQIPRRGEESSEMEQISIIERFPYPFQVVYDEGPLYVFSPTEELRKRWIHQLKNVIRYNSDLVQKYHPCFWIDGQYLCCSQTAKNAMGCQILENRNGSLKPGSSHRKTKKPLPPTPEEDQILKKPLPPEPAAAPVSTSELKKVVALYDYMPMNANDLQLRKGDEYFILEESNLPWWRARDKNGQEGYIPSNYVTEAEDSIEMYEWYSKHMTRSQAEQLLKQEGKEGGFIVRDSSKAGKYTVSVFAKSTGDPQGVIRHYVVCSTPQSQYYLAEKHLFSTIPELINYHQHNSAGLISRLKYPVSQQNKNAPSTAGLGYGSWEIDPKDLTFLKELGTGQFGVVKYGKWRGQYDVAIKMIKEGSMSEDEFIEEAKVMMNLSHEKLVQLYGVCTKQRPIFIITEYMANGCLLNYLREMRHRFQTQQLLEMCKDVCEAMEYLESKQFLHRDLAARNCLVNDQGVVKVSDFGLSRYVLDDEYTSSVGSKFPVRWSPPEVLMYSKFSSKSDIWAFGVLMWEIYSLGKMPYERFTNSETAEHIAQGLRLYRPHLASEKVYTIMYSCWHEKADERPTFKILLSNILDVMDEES

[6] = target: Tyrosine-protein kinase Fyn (Homo sapiens) (UniProt P06241); experiment: Inhibition of recombinant full length C-terminal His-tagged human FYN cytoplasmic domain expressed in baculovirus expression system assessed as enzyme residual activity at 0.4 uM using fluorophore-labeled tyrosine-2 peptide as substrate by Z'-Lyte assay relative to control
Sequence of Tyrosine-protein kinase Fyn (Homo sapiens) (P06241 2-537 limits assumed): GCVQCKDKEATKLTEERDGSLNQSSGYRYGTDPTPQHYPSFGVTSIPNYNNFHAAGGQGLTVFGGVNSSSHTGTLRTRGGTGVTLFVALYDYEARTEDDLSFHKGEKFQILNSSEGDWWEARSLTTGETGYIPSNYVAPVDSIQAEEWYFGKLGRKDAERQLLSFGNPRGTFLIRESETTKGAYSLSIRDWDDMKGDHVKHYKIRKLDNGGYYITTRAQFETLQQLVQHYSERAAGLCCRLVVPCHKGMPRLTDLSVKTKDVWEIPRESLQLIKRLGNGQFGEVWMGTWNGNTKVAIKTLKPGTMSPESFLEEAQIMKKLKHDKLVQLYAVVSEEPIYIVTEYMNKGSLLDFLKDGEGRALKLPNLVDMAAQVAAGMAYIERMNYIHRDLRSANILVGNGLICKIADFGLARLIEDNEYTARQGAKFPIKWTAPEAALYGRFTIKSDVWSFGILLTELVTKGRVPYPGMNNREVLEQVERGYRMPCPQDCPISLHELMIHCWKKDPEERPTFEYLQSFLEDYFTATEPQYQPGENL

Sequence of Serine/threonine-protein kinase Sgk1 (Homo sapiens) (O00141 whole entry, the tested form may be a part): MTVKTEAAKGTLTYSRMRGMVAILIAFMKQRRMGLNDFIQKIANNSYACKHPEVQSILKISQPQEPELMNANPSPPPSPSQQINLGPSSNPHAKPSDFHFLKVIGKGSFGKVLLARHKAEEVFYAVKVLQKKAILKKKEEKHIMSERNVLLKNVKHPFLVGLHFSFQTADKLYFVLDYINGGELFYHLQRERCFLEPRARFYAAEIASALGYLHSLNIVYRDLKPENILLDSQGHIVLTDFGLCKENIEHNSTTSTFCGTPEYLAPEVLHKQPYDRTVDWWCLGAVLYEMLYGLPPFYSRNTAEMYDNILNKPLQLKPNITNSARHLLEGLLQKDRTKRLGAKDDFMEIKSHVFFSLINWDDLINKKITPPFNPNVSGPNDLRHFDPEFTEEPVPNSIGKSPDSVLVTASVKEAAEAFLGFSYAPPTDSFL

**Q.** For `C=CC(=O)N1CCC(Oc2nc(Nc3ccc(N4CCOCC4)cc3)nc3[nH]cc(-c4cncc(NC)n4)c23)CC1`, which Activity [1] is on record?
**A.** The Activity was 97%.

**Q.** What about the Activity [2] of the same molecule?
**A.** The Activity was “Active”.

**Q.** And the Activity [3]?
**A.** Its Activity is 89%.

**Q.** What about the Activity [4] of the same molecule?
**A.** Its Activity is 19.3%.

**Q.** What about the Activity [5] of the same molecule?
**A.** Its Activity is 41.3%.

**Q.** And the Activity [6]?
**A.** The Activity was 21%.
